Experimental data taken from patent publication US10597388B2, “Pyridazinone herbicides” (FMC CORPORATION, priority 2014, dated 2020).

Tests used:
Format in all cases: in vivo
[1] = test system: Italian ryegrass (Lolium multiflorum); assay: Test E greenhouse herbicide test, pre- and postemergence
Method in brief: (§1)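 Compounds in a non-phytotoxic solvent mixture with surfactant were applied preemergence to seeds in silt loam soil and postemergence to 2-18 cm plants (1- to 4-leaf stage) in peat-based medium. After 14 to 21 d in a greenhouse, injury was rated visually against untreated controls on a 0 (no effect) to 100 (complete control) scale.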

[2] = test system: arrowleaf sida (Sida rhombifolia); assay: as above
Method in brief: as §1

[3] = test system: crabgrass, large (large crabgrass, Digitaria sanguinalis); assay: as above; details: Preemergence
Method in brief: as §1

[4] = test system: dayflower (Virginia (VA) dayflower, Commelina virginica); assay: as above
Method in brief: as §1

[5] = test system: foxtail, giant (giant foxtail, Setaria faberii); assay: as above; details: Preemergence
Method in brief: as §1

[6] = test system: foxtail, green (green foxtail, Setaria viridis); assay: as above; details: Preemergence
Method in brief: as §1

[7] = test system: horseweed (Conyza canadensis); assay: as above
Method in brief: as §1

[8] = test system: johnsongrass (Sorghum halepense); assay: as above; details: Preemergence
Method in brief: as §1

kochia (Kochia scoparia) = assay: as above
Method in brief: as §1

[9] = test system: momingglory (Ipomoea coccinea); assay: as above; details: Preemergence
Method in brief: as §1

[10] = test system: nightshade (eastern black nightshade, Solanum ptycanthum); assay: as above; details: Preemergence
Method in brief: as §1

[11] = test system: pigweed, palmer (palmer pigweed, Amaranthus palmeri); assay: as above
Method in brief: as §1

soybean (Glycine max) = assay: as above
Method in brief: as §1

[12] = test system: velvetleaf (Abutilon theophrasti); assay: as above; details: Preemergence
Method in brief: as §1

[13] = test system: waterhemp_RES1 (ALS & Triazine resistant common waterhemp, Amaranthus rudis); assay: Test E greenhouse herbicide test, postemergence
Method in brief: (§2)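 Greenhouse test, 14–21 d after postemergence treatment of 2–18 cm plants; percent control was assessed visually, 0–100, against untreated plants.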

[14] = test system: waterhemp_RES2 (ALS & HPPD resistant common waterhemp, Amaranthus rudis); assay: Test E greenhouse herbicide test, postemergence
Method in brief: as §2

[15] = 62 g ai/ha, Postemergence, scale 0 to 100 (0 no effect, 100 complete control)
[16] = 62 g ai/ha, Preemergence, scale 0 to 100 (0 no effect, 100 complete control)
[17] = 125 g ai/ha, Postemergence, scale 0 to 100 (0 no effect, 100 complete control)
[18] = 125 g ai/ha, Preemergence, scale 0 to 100 (0 no effect, 100 complete control)
[19] = 250 g ai/ha, Postemergence, scale 0 to 100 (0 no effect, 100 complete control)
[20] = Postemergence, 31 g ai/ha, visual, scale 0 no effect to 100 complete control
[21] = Preemergence, 31 g ai/ha, scale 0 to 100, 0 no effect, 100 complete control
[22] = Preemergence, 250 g ai/ha, visual, scale 0 no effect to 100 complete control
[23] = Preemergence, 125 g ai/ha, visual, scale 0 no effect to 100 complete control
[24] = 62 g ai/ha, scale 0 to 100 (0 no effect, 100 complete control)
[25] = 31 g ai/ha, scale 0 to 100, 0 no effect, 100 complete control
[26] = 125 g ai/ha, visual, scale 0 no effect to 100 complete control
[27] = 250 g ai/ha, visual, scale 0 no effect to 100 complete control
[28] = 125 g ai/ha, scale 0 to 100 (0 no effect, 100 complete control)
[29] = 31 g ai/ha, visual, scale 0 no effect to 100 complete control
[30] = 250 g ai/ha, scale 0 to 100 (0 no effect, 100 complete control)

Cc1nn(C)c(=O)c(-c2ccc(F)c3ccccc23)c1O [Compound 41]
30: Plant response rating, Foxtail, Giant [5, 25] | Plant response rating, Morningglory [9, 25] | Plant response rating, Soybean (soybean (Glycine max); [20])
25: Plant response rating, Foxtail, Green [6, 24] | Plant response rating, Johnsongrass [8, 27] | Plant response rating, Nightshade [10, 25]
35: Plant response rating, Soybean (soybean (Glycine max); [16])
65: Plant response rating, Crabgrass, Large [3, 25] | Plant response rating, Foxtail, Giant [5, 24] | Plant response rating, Soybean (soybean (Glycine max); [22])
90: Plant response rating, Ryegrass, Italian [1, 19] | Plant response rating, Arrowleaf Sida [2, 15] | Plant response rating, Arrowleaf Sida [2, 19] | Plant response rating, Dayflower, VA [4, 19] | Plant response rating, Foxtail, Giant [5, 27] | Plant response rating, Kochia (kochia (Kochia scoparia); [16]) | Plant response rating, Kochia (kochia (Kochia scoparia); [20]) | Plant response rating, Kochia (kochia (Kochia scoparia); [21]) | Plant response rating, Morningglory [9, 28] | Plant response rating, Pigweed, Palmer [11, 17] | Plant response rating, Waterhemp_RES1 [13, 28]
50: Plant response rating, Arrowleaf Sida [2, 16] | Plant response rating, Dayflower, VA [4, 20] | Plant response rating, Foxtail, Green [6, 26] | Plant response rating, Morningglory [9, 24] | Plant response rating, Pigweed, Palmer [11, 20]
75: Plant response rating, Foxtail, Green [6, 27] | Plant response rating, Horseweed [7, 20] | Plant response rating, Pigweed, Palmer [11, 18] | Plant response rating, Soybean (soybean (Glycine max); [19]) | Plant response rating, Waterhemp_RES1 [13, 29] | Plant response rating, Waterhemp_RES1 [13, 24]
40: Plant response rating, Dayflower, VA [4, 15] | Plant response rating, Dayflower, VA [4, 16] | Plant response rating, Soybean (soybean (Glycine max); [15])
95: Plant response rating, Arrowleaf Sida [2, 17] | Plant response rating, Kochia (kochia (Kochia scoparia); [15]) | Plant response rating, Kochia (kochia (Kochia scoparia); [17]) | Plant response rating, Kochia (kochia (Kochia scoparia); [19]) | Plant response rating, Morningglory [9, 27] | Plant response rating, Pigweed, Palmer [11, 19] | Plant response rating, Velvetleaf [12, 28] | Plant response rating, Waterhemp_RES1 [13, 30]
60: Plant response rating, Crabgrass, Large [3, 27] | Plant response rating, Pigweed, Palmer [11, 15] | Plant response rating, Soybean (soybean (Glycine max); [17])
0: Plant response rating, Johnsongrass [8, 24] | Plant response rating, Johnsongrass [8, 25] | Plant response rating, Johnsongrass [8, 26] | Plant response rating, Soybean (soybean (Glycine max); [21])
20: Plant response rating, Arrowleaf Sida [2, 21] | Plant response rating, Foxtail, Green [6, 25] | Plant response rating, Soybean (soybean (Glycine max); [18]) | Plant response rating, Velvetleaf [12, 25] | Plant response rating, Waterhemp_RES2 [14, 29]
70: Plant response rating, Crabgrass, Large [3, 24] | Plant response rating, Dayflower, VA [4, 23] | Plant response rating, Foxtail, Giant [5, 26] | Plant response rating, Horseweed [7, 19]
98: Plant response rating, Ryegrass, Italian [1, 21] | Plant response rating, Arrowleaf Sida [2, 23] | Plant response rating, Nightshade [10, 28] | Plant response rating, Nightshade [10, 27]
15: Plant response rating, Dayflower, VA [4, 21] | Plant response rating, Pigweed, Palmer [11, 21]
85: Plant response rating, Ryegrass, Italian [1, 15] | Plant response rating, Ryegrass, Italian [1, 17] | Plant response rating, Arrowleaf Sida [2, 20] | Plant response rating, Dayflower, VA [4, 17] | Plant response rating, Pigweed, Palmer [11, 16] | Plant response rating, Pigweed, Palmer [11, 22] | Plant response rating, Velvetleaf [12, 24] | Plant response rating, Waterhemp_RES2 [14, 30]
100: Plant response rating, Ryegrass, Italian [1, 16] | Plant response rating, Ryegrass, Italian [1, 18] | Plant response rating, Ryegrass, Italian [1, 22] | Plant response rating, Arrowleaf Sida [2, 22] | Plant response rating, Horseweed [7, 16] | Plant response rating, Horseweed [7, 21] | Plant response rating, Horseweed [7, 23] | Plant response rating, Horseweed [7, 22] | Plant response rating, Kochia (kochia (Kochia scoparia); [23]) | Plant response rating, Kochia (kochia (Kochia scoparia); [22]) | Plant response rating, Velvetleaf [12, 27]
80: Plant response rating, Ryegrass, Italian [1, 20] | Plant response rating, Crabgrass, Large [3, 26] | Plant response rating, Dayflower, VA [4, 22] | Plant response rating, Horseweed [7, 15] | Plant response rating, Horseweed [7, 17] | Plant response rating, Nightshade [10, 24] | Plant response rating, Waterhemp_RES2 [14, 24] | Plant response rating, Waterhemp_RES2 [14, 28]

CCc1sc2ccc(C)cc2c1-c1c(O)c(C)nn(C)c1=O [Compound 47]
25: Plant response rating, Morningglory [9, 25] | Plant response rating, Pigweed, Palmer [11, 18] | Plant response rating, Soybean (soybean (Glycine max); [15])
85: Plant response rating, Kochia (kochia (Kochia scoparia); [16]) | Plant response rating, Kochia (kochia (Kochia scoparia); [19])
30: Plant response rating, Ryegrass, Italian [1, 16] | Plant response rating, Ryegrass, Italian [1, 18] | Plant response rating, Foxtail, Green [6, 26] | Plant response rating, Pigweed, Palmer [11, 17] | Plant response rating, Soybean (soybean (Glycine max); [19])
0: Plant response rating, Ryegrass, Italian [1, 15] | Plant response rating, Ryegrass, Italian [1, 17] | Plant response rating, Ryegrass, Italian [1, 20] | Plant response rating, Arrowleaf Sida [2, 16] | Plant response rating, Arrowleaf Sida [2, 21] | Plant response rating, Crabgrass, Large [3, 24] | Plant response rating, Crabgrass, Large [3, 25] | Plant response rating, Crabgrass, Large [3, 26] | Plant response rating, Dayflower, VA [4, 16] | Plant response rating, Dayflower, VA [4, 17] | Plant response rating, Dayflower, VA [4, 20] | Plant response rating, Dayflower, VA [4, 21] | Plant response rating, Dayflower, VA [4, 23] | Plant response rating, Foxtail, Giant [5, 24] | Plant response rating, Foxtail, Giant [5, 25] | Plant response rating, Foxtail, Green [6, 25] | Plant response rating, Johnsongrass [8, 24] | Plant response rating, Johnsongrass [8, 25] | Plant response rating, Johnsongrass [8, 26] | Plant response rating, Kochia (kochia (Kochia scoparia); [21]) | Plant response rating, Pigweed, Palmer [11, 16] | Plant response rating, Pigweed, Palmer [11, 21] | Plant response rating, Soybean (soybean (Glycine max); [16]) | Plant response rating, Soybean (soybean (Glycine max); [18]) | Plant response rating, Soybean (soybean (Glycine max); [21]) | Plant response rating, Velvetleaf [12, 25]
40: Plant response rating, Arrowleaf Sida [2, 20] | Plant response rating, Foxtail, Giant [5, 26] | Plant response rating, Horseweed [7, 15] | Plant response rating, Horseweed [7, 20] | Plant response rating, Soybean (soybean (Glycine max); [22])
5: Plant response rating, Ryegrass, Italian [1, 21] | Plant response rating, Dayflower, VA [4, 15]
65: Plant response rating, Pigweed, Palmer [11, 22]
35: Plant response rating, Crabgrass, Large [3, 27] | Plant response rating, Pigweed, Palmer [11, 15] | Plant response rating, Pigweed, Palmer [11, 20]
50: Plant response rating, Ryegrass, Italian [1, 22] | Plant response rating, Arrowleaf Sida [2, 15] | Plant response rating, Waterhemp_RES2 [14, 24]
80: Plant response rating, Dayflower, VA [4, 22] | Plant response rating, Foxtail, Giant [5, 27] | Plant response rating, Kochia (kochia (Kochia scoparia); [17]) | Plant response rating, Nightshade [10, 25] | Plant response rating, Waterhemp_RES1 [13, 28]
100: Plant response rating, Kochia (kochia (Kochia scoparia); [22]) | Plant response rating, Morningglory [9, 28] | Plant response rating, Morningglory [9, 27] | Plant response rating, Nightshade [10, 28] | Plant response rating, Nightshade [10, 27] | Plant response rating, Velvetleaf [12, 27]
98: Plant response rating, Nightshade [10, 24]
75: Plant response rating, Arrowleaf Sida [2, 23] | Plant response rating, Horseweed [7, 19] | Plant response rating, Kochia (kochia (Kochia scoparia); [23]) | Plant response rating, Morningglory [9, 24] | Plant response rating, Velvetleaf [12, 28]
20: Plant response rating, Foxtail, Green [6, 24] | Plant response rating, Johnsongrass [8, 27] | Plant response rating, Soybean (soybean (Glycine max); [17]) | Plant response rating, Soybean (soybean (Glycine max); [20])
15: Plant response rating, Waterhemp_RES2 [14, 29]
60: Plant response rating, Arrowleaf Sida [2, 17] | Plant response rating, Arrowleaf Sida [2, 19] | Plant response rating, Horseweed [7, 17] | Plant response rating, Kochia (kochia (Kochia scoparia); [20]) | Plant response rating, Waterhemp_RES1 [13, 29] | Plant response rating, Waterhemp_RES2 [14, 28]
10: Plant response rating, Ryegrass, Italian [1, 19] | Plant response rating, Dayflower, VA [4, 19]
70: Plant response rating, Foxtail, Green [6, 27] | Plant response rating, Kochia (kochia (Kochia scoparia); [15]) | Plant response rating, Pigweed, Palmer [11, 19] | Plant response rating, Waterhemp_RES1 [13, 24] | Plant response rating, Waterhemp_RES2 [14, 30]
90: Plant response rating, Arrowleaf Sida [2, 22]
95: Plant response rating, Waterhemp_RES1 [13, 30]
